Assay results: patent publication US7550471B2, “5-alkyl-7-aminotriazolopyrimidines, methods and intermediary product necessary for the production thereof, agents containing said compounds and the use thereof for fighting against harmful mushrooms” (BASF Aktiengesellschaft, priority 2002, dated 2009)

System: Alternaria solani
Experiment: Activity against early blight of tomato caused by Alternaria solani
Format: in vivo
Details: 250 ppm active compound, tomato plants sprayed one day before infection, assessed after 5 days; untreated plants 90% infected
Procedure: The active compounds were formulated separately as a stock solution comprising 0.25% by weight of active compound in acetone or DMSO. 1% by weight of the emulsifier Uniperol® EL (wetting agent having emulsifying and dispersing action based on ethoxylated alkylphenols) was added to this solution. The stock solutions of the active compounds were diluted with water to the stated concentration. Leafs of potted plants of the cultivar “Groβe Fleischtomate St. Pierre” were sprayed to run off point with an aqueous suspension having the concentration of active compound stated below. The next day, the leaves were infected with an aqueous spore suspension of Alternaria solani in a 2% strength biomalt solution of a density of 0.17×10^6 spores/ml. The plants were then placed in a water-vapor-saturated chamber at 20-22° C. After 5 days, the early blight on the untreated but infected control plants had developed to such an extent that the infection could be determined visually in %.

## Cc1nc2ncnn2c(N2CCC(C)CC2)c1C1CCCC1 [Compound I-1, 5-methyl-6-cyclopentyl-7-(4-methyl-piperidin-1-yl)-[1,2,4]triazolo[1,5-a]pyrimidine]
  infection (early blight, determined visually in %): no infection
